Results: article PMC10005185, “Structure-guided engineering of a receptor-agonist pair for inducible activation of the ABA adaptive response to drought” (Science Advances, 2023)
Values joined by “and” are separate entries in the source; they are usually repeats but may differ in a detail not shown here. Equal entries are not always repeated.

Tests used:
ΔNHAB1 with AtPYL1 = biological target: T1, ΔNHAB1 with AtPYL1 (Arabidopsis thaliana, UniProt Q8VZS8); assay: PP2C inhibition assay, HAB1 with AtPYL1; assay type: biochemical
T1 construct: His; made in house
T1 sequence (Q8VZS8 whole entry, stated change not applied): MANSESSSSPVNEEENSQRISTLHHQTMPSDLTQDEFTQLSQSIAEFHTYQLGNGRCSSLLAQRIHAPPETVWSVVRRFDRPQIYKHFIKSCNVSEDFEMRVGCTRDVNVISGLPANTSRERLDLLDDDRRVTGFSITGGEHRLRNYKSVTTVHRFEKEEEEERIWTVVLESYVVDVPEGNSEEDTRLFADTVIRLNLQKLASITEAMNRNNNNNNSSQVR
Description: (§1) His-tagged receptors and phosphatases were purified using nickel–nitrilotriacetic acid (Ni-NTA) affinity chromatography. Protein integrity was analyzed by SDS–polyacrylamide gel electrophoresis, followed by InstantBlue staining. Phosphatase activity was measured using p-Nitrophenyl Phosphate (pNPP) (25 mM) as substrate, 10 mM MnCl2,1 μM PP2C, and 2 μM of the indicated receptors. Proteins were incubated with the ligands for 10 min at room temperature. pNPP was then added to start the reactions, and the absorbance at 405 nm was monitored for 20 min in a ViktorX5 plate reader. Assays were repeated twice. For dose-response experiments, IC50 values were obtained with GraphPad Prism 9 using a nonlinear regression curve fit. Each ligand concentration was tested in triplicate. Phosphatase activity of ABI1 was measured using RRA(phosphoT)VA peptide as a substrate, as described ([27]).

ΔNHAB1 with AtPYL5 = biological target: T2, ΔNHAB1 with AtPYL5 (Arabidopsis thaliana, UniProt Q9FLB1); assay: PP2C inhibition assay, HAB1 with AtPYL5; assay type: biochemical
T2 construct: His; made in house
T2 sequence (Q9FLB1 whole entry, stated change not applied): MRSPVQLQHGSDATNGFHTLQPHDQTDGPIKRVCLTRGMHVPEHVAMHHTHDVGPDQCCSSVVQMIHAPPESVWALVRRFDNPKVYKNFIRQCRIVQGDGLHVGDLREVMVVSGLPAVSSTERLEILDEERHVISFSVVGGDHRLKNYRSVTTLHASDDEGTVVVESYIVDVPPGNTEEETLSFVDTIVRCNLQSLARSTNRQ
Description: as §1

ΔNHAB1 with AtPYL10 [1] = biological target: T3, ΔNHAB1 with AtPYL10 (Arabidopsis thaliana, UniProt Q8H1R0); assay: PP2C inhibition assay, HAB1 with AtPYL10; assay type: biochemical
T3 construct: His; made in house
T3 sequence (Q8H1R0 whole entry, stated change not applied): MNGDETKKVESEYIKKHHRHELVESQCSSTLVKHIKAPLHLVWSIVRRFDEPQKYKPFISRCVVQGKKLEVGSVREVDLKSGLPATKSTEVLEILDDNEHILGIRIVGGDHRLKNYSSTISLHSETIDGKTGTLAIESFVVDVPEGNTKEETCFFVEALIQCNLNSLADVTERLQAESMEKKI
Description: as §1

ΔNHAB1 with AtPYL10 [2] = assay: PP2C inhibition assay, HAB1 with AtPYL10; assay type: biochemical, Arabidopsis thaliana; conditions: more sensitive
Description: as §1

AtHAB1ΔN with CsPYL1 = assay: PP2C inhibition assay, HAB1 with CsPYL1; assay type: biochemical, Citrus sinensis (CsPYL1); Arabidopsis thaliana (HAB1); conditions: fig. S1C; AtPYL5, AtPYL10 and PYL1-like receptors
Description: as §1, with “Proteins were incubated with the ligands for 10 min at room temperature. pNPP was then added to start the reactions, and the absorbance at 405 nm was monitored for 20 min in a ViktorX5 plate reader.” left out

AtHAB1ΔN with CsPYL1^5m [3] = biological target: AtHAB1ΔN with CsPYL1^5m (Citrus sinensis, UniProt A0A067E666, F137I/T135L/T153I/V112L/V168A); assay: PP2C inhibition assay, HAB1 with CsPYL1^5m; assay type: biochemical, Citrus sinensis (CsPYL1^5m); Arabidopsis thaliana (HAB1); conditions: IC50 for inhibition of HAB1 (ΔNHAB1) in the presence of CsPYL1^5m, pNPP as substrate
Chain of AtHAB1ΔN with CsPYL1^5m (Citrus sinensis, UniProt A0A067E666, F137I/T135L/T153I/V112L/V168A) (A0A067E666 1-209 V112L/T135L/F137I/T153I/V168A): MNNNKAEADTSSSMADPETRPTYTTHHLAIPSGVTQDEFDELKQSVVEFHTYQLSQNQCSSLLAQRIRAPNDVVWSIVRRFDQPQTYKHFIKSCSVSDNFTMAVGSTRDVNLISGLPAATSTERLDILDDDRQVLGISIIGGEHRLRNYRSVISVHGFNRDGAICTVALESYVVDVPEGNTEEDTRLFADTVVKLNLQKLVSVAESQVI
Chain of AtHAB1ΔN with CsPYL1^5m (Citrus sinensis, UniProt A0A067E666, F137I/T135L/T153I/V112L/V168A) (Q9CAJ0 179-511 partner): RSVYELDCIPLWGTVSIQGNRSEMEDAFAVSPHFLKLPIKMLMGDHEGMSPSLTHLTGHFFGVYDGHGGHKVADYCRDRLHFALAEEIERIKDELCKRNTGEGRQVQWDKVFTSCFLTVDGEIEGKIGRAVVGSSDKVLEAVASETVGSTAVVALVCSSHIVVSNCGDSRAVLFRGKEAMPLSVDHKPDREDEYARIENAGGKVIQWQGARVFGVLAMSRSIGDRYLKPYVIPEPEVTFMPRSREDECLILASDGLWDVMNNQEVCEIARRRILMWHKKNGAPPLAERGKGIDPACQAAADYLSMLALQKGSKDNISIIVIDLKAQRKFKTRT
Description: as §1, with “Proteins were incubated with the ligands for 10 min at room temperature. pNPP was then added to start the reactions, and the absorbance at 405 nm was monitored for 20 min in a ViktorX5 plate reader.” left out

AtHAB1ΔN with CsPYL1^5m [4] = assay: PP2C inhibition assay, HAB1 with CsPYL1^5m; assay type: biochemical, Citrus sinensis (CsPYL1^5m); Arabidopsis thaliana (HAB1); conditions: lower for the synthetic receptor
Description: as §1, with “Proteins were incubated with the ligands for 10 min at room temperature. pNPP was then added to start the reactions, and the absorbance at 405 nm was monitored for 20 min in a ViktorX5 plate reader.” left out

HAB1 with SlPYL1 = assay: PP2C inhibition assay, HAB1 with SlPYL1; assay type: biochemical, Solanum lycopersicum (SlPYL1); Arabidopsis thaliana (HAB1); conditions: 100 μM SB
Description: as §1

[5] = test system: Arabidopsis thaliana seedlings (WT Col-0, overexpressing lines, receptor mutants); assay: Seedling establishment assay; assay type: in vivo
Description: Seedling establishment was scored as the percentage of seeds that developed green expanded cotyledons and the first pair of true leaves at 5 or 7 days. Seedling establishment assays in the presence of ABA receptor agonists were performed in 24-well plates, where approximately 25 to 35 seeds per well were sown. Each well contained a different treatment. The experiment was repeated at least twice.

[6] = test system: Arabidopsis thaliana seedlings; assay: Root growth assay; assay type: in vivo; conditions: for reduction of root growth: 50 μM SB
Description: Seedlings were grown on vertically oriented Murashige and Skoog (MS) plates for 4 to 5 days. Afterward, seedlings were transferred to MS supplemented with the indicated concentrations of the different ligands and kept on vertical orientation. Ten days later, the plates were scanned on a flatbed scanner to produce image files suitable for quantitative analysis of root growth using the NIH Image software ImageJ. The experiment was performed in triplicate (n = 13 to 16). Statistical comparisons were performed by either pairwise t tests or one-way ANOVA using GraphPad Prism 9.

[7] = read-out: inhibition of HAB1 phosphatase activity

Cc1cc(=O)n(C)c2ccc(S(=O)(=O)NCc3ccccc3)cc12 [SB, N-benzyl-1,4-dimethyl-2-oxo-1,2-dihydroquinoline-6-sulfonamide]
IC50 (ΔNHAB1 with AtPYL1; Fig. 1B, read-out: IC50 for SB-dependent inhibition of ΔNHAB1 by AtPYL1): 10100 ± 1990 nM
IC50 of SB relative to IC50 of ABA (ΔNHAB1 with AtPYL1; PYL1, higher than ABA): circa 30 fold
IC50 (ΔNHAB1 with AtPYL5; Fig. 1B, read-out: IC50 for SB-dependent inhibition of ΔNHAB1 by AtPYL5): 877 ± 6 nM
IC50 of SB relative to IC50 of ABA (ΔNHAB1 with AtPYL5; PYL5, higher than ABA): circa 30 fold
inhibition at 100 µM (ΔNHAB1 with AtPYL5; [7]): > 75%
IC50 of SB relative to IC50 of ABA (ΔNHAB1 with AtPYL10 [1]; AtPYL10): fourfold higher
IC50 (ΔNHAB1 with AtPYL10 [1]; Fig. 1B, read-out: IC50 for SB-dependent inhibition of ΔNHAB1 by AtPYL10): 506 ± 56 nM
inhibition at 100 µM (ΔNHAB1 with AtPYL10 [1]; [7]): > 75%
sensitivity to SB of PYL10 relative to PYL1 members (ΔNHAB1 with AtPYL10 [2]): 20 fold
inhibition of HAB1 activity by candidate molecules of the in silico screening (AtHAB1ΔN with CsPYL1): able to inhibit HAB1 activity
IC50 (AtHAB1ΔN with CsPYL1^5m [3]): 877 nM and 876 nM
IC50 of SB for CsPYL1^5m relative to WT CsPYL1 (AtHAB1ΔN with CsPYL1^5m [4]): 12 fold
reduction of phosphatase activity (HAB1 with SlPYL1): around 50%
inhibition of seedling establishment ([5]; 35S:CsPYL1^5m lines, 10 μM SB): sensitive
inhibition of seedling establishment ([5]; 35S:CsPYL1 lines, even by 100 μM SB): not affected
dosage required to inhibit seedling establishment relative to ABA ([5]; CsPYL1^5m lines, higher than ABA): 20 fold
inhibition of seedling establishment ([5]; PYL5- and PYL10-overexpressing lines, 50 to 100 μM SB): reduced the seedling establishment
inhibition of seedling establishment ([5]; WT seeds, even at 100 μM): not active
reduction of root growth ([6]; PYL5- and PYL10-overexpressing lines): 40%
reduction of root growth ([6]; WT seedlings): 20%
effect on root growth ([6]; sextuple 112458 mutant): resistant
